Assay [1] concerns the target T1, topoisomerase I (topoI) (Escherichia coli, UniProt P06612).
T1 construct: gene topA; commercial topoI (NEB)
Briefly: plasmid relaxation assay on agarose gel with purified commercial topoI. It is filed as biochemical.

In assay [2] the target is T2, topoisomerase I (topoI) (Dickeya dadantii, UniProt E0SBX6).
T2 construct: gene topA; N-terminally 6xhis-tagged topoisomerase I
Nature of the assay: pUC18 plasmid relaxation assay on agarose gel with purified topoI. In kind it is biochemical.

T1 sequence (P06612 whole entry): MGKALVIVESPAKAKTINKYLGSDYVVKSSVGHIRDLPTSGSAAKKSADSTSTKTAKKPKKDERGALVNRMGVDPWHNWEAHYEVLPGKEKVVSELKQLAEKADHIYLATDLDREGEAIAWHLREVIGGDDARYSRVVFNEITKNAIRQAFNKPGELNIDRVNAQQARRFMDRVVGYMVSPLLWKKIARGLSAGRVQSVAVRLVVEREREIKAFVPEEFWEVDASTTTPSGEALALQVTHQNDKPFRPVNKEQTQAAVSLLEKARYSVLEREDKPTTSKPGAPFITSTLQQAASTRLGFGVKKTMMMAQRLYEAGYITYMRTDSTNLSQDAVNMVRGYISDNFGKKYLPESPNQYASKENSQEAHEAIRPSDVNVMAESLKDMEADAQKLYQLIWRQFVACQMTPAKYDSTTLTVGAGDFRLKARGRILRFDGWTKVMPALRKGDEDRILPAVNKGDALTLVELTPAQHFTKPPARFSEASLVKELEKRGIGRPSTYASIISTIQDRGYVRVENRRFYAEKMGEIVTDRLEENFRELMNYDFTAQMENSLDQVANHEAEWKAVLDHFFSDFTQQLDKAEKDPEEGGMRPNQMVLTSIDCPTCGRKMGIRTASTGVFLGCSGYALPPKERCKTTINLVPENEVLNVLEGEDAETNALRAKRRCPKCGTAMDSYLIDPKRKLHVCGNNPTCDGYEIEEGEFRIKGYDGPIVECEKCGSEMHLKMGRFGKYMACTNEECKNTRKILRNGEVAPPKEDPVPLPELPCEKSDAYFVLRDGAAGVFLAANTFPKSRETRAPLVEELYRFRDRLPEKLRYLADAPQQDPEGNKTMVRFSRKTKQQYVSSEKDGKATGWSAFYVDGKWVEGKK
T2 sequence (E0SBX6 entry or part of it): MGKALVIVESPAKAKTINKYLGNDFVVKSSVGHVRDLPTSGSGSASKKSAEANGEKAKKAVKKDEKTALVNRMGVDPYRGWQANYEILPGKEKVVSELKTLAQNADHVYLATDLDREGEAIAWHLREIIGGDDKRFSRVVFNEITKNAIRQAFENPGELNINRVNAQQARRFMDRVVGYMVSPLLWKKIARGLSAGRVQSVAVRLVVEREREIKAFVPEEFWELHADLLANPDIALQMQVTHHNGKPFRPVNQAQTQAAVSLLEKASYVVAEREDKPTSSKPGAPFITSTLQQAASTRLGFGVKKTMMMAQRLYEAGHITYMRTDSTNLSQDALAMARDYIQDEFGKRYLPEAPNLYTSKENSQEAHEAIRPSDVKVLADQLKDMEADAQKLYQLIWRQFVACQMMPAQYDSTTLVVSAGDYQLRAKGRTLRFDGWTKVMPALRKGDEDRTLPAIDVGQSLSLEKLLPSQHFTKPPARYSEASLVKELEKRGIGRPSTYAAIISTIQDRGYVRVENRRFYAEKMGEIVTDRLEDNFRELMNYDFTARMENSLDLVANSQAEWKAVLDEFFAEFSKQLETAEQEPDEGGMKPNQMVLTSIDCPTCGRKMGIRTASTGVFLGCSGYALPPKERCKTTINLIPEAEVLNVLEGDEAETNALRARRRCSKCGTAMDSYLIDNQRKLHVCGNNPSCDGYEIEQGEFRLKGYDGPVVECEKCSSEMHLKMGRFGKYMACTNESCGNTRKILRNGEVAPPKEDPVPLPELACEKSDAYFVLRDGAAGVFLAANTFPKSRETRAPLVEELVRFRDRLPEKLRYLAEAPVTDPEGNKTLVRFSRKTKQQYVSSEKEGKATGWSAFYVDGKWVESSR

`CNCCc1cc2c(c3c1ccc1cc4c(cc13)OCO4)OCO2` [SCN, seconeolitsine]: the IC50 was approximately 7 µM against topoisomerase I (topoI) [1] and 4 µM on topoisomerase I (topoI) [2].

For the origin of these results see article PMC9458453, “What is a supercoiling-sensitive gene? Insights from topoisomerase I inhibition in the Gram-negative bacterium Dickeya dadantii” (Nucleic Acids Research, 2022).
